Measured values as given in patent US20220007687A1, “SHELF STABLE LIQUID FLAVORED CONCENTRATE” (DreamPak LLC, priority 2020, published 2022).

Columns and labels:
[1] = pH of acid solutions in water (Example 1); assay type: physicochemical; details: 22 g acid in 78 ml water; 2 ml of the mixture diluted in 250 ml water
Method: The pH, taste, and mouthfeel of lactic, citric, and malic acids are compared. With each acid, 22 g of the acid is mixed in 78 ml of water, then 2 ml of the mixture is diluted in 250 ml of water, and pH readings of the diluted solutions are obtained.

[2] = pH of acid solutions with sodium citrate buffer (Example 2); assay type: physicochemical; details: for delta pH: buffered concentrate (Example 2) compared to concentrate without buffer (Example 1); for pH: concentrate: 22 g acid, 2 g sodium citrate, 76 ml water
Method: The impact of adding a buffer to solutions of lactic, citric, and malic acid is researched. With each acid, 22 g of the acid is mixed with 2 g of sodium citrate in 76 ml of water, and pH readings of the concentrates are obtained, then 2 ml of the concentrates is diluted in 250 ml of water and the resulting solutions were evaluated for taste and mouthfeel.

Structure (SMILES): O=C(O)CC(O)(CC(=O)O)C(=O)O [Citric Acid, citric acid]
- pH [1]: 1.15
- delta pH [2]: 0.87
- pH [2]: 2.02

Structure (SMILES): CC(O)C(=O)O (stereo not drawn) [Lactic Acid, 2-hydroxypropionic acid]
- pH [1]: 1.45
- delta pH [2]: 1.04
- pH [2]: 2.49

Structure (SMILES): O=C(O)CC(O)C(=O)O (stereo not drawn) [Malic Acid, malic acid]
- pH [1]: 1.33
- delta pH [2]: 0.79
- pH [2]: 2.12
